Data: patent publication US11738008B2, “N-methyl-D-aspartic acid receptor modulators” (Emory University, priority 2018, dated 2023)

Columns and labels:
[1] = molecular target: T1, GluA2 (Homo sapiens, UniProt P42262); assay: Off-target two-electrode voltage clamp assay, GluA2; type: cell-based; details: 10 μM, mean ± SEM
T1 construct: expressed in transfected cells
Method: (§1) The NIMH PDSP is Directed by Bryan L. Roth at the University of North Carolina at Chapel Hill and Project Officer Jamie Driscoll at NIMH, Bethesda Md., USA. Radioligand binding was measured in the presence of 10 μM 1180-420 and 1180-447. […] For experimental details please refer to the PDSP web site https://pdsp.unc.edu/ims/investigator/web/. Both 1180-420 and 1180-447 were also tested at AMPA, nicotinic acetylcholine, serotonin, GABA, and glycine ion channels using a two-electrode voltage clamp assay.

[2] = system: α1β2γδ-nACh; assay: Off-target two-electrode voltage clamp assay, α1β2γδ-nACh; type: cell-based; details: 10 μM, mean ± SEM
Method: as §1

[3] = molecular target: T2, α1β2γ2-GABAA (Homo sapiens, UniProt P14867+P18507+P47870); assay: Off-target two-electrode voltage clamp assay, α1β2γ2-GABAA; type: cell-based; details: 10 μM, mean ± SEM
T2 construct: expressed in transfected cells
Method: as §1

[4] = molecular target: T3, 5-HT1A (Homo sapiens, UniProt P08908); assay: NIMH PDSP radioligand binding, 5-HT1A; details: read-out: Radioligand binding in 10 μM compound (% control)
T3 construct: NIMH PDSP (assay provider)
Method: as §1
(§2) Receptor binding profiles of compound 1180-447 were generously provided by the National Institute of Mental Health's Psychoactive Drug Screening Program, Contract # HHSN-271-2013-00017-C(NIMH PDSP). The NIMH PDSP is directed by Bryan L. Roth at the University of North Carolina at Chapel Hill and Project Officer Jamie Driscoll at NIMH, Bethesda Md., USA. Radioligand binding was measured in the presence of 10 μM 1180-447. […] For experimental details please refer to the PDSP web site https://pdsp.unc.edu/ims/investigator/web/.
(§3) The NIMH PDSP is Directed by Bryan L. Roth at the University of North Carolina at Chapel Hill and Project Officer Jamie Driscoll at NIMH, Bethesda Md., USA. Radioligand binding was measured in the presence of 10 μM 1180-420. […] For experimental details please refer to the PDSP web site https://pdsp.unc.edu/ims/investigator/web/.

[5] = molecular target: T4, 5-HT1B (Homo sapiens, UniProt P28222); assay: NIMH PDSP radioligand binding, 5-HT1B; details: read-out: Radioligand binding in 10 μM compound (% control)
T4 construct: NIMH PDSP (assay provider)
Method: as §1, §2, §3

[6] = molecular target: T5, 5-HT1D (Homo sapiens, UniProt P28221); assay: NIMH PDSP radioligand binding, 5-HT1D; details: read-out: Radioligand binding in 10 μM compound (% control)
T5 construct: NIMH PDSP (assay provider)
Method: as §1, §2, §3

[7] = molecular target: T6, 5-HT1E (Homo sapiens, UniProt P28566); assay: NIMH PDSP radioligand binding, 5-HT1E; details: read-out: Radioligand binding in 10 μM compound (% control)
T6 construct: NIMH PDSP (assay provider)
Method: as §1, §2, §3

[8] = molecular target: T7, 5-HT2A (Homo sapiens, UniProt P28223); assay: NIMH PDSP radioligand binding, 5-HT2A; details: 10 μM, read-out: Radioligand binding in 10 μM compound (% control)
T7 construct: NIMH PDSP (assay provider)
Method: as §1, §2, §3

[9] = molecular target: T8, 5-HT5A (Homo sapiens, UniProt P47898); assay: NIMH PDSP radioligand binding, 5-HT5A; details: read-out: Radioligand binding in 10 μM compound (% control)
T8 construct: NIMH PDSP (assay provider)
Method: as §1, §2, §3

[10] = molecular target: T9, 5-HT6 (Homo sapiens, UniProt P50406); assay: NIMH PDSP radioligand binding, 5-HT6; details: read-out: Radioligand binding in 10 μM compound (% control)
T9 construct: NIMH PDSP (assay provider)
Method: as §1, §2, §3

[11] = molecular target: T10, D1 (Homo sapiens, UniProt P21728); assay: NIMH PDSP radioligand binding, D1; details: read-out: Radioligand binding in 10 μM compound (% control)
T10 construct: NIMH PDSP (assay provider)
Method: as §1, §2, §3

[12] = molecular target: T11, D2 (Homo sapiens, UniProt P14416); assay: NIMH PDSP radioligand binding, D2; details: read-out: Radioligand binding in 10 μM compound (% control)
T11 construct: NIMH PDSP (assay provider)
Method: as §1, §2, §3

[13] = molecular target: T12, D4 (Homo sapiens, UniProt P21917); assay: NIMH PDSP radioligand binding, D4; details: read-out: Radioligand binding in 10 μM compound (% control)
T12 construct: NIMH PDSP (assay provider)
Method: as §1, §2, §3

[14] = molecular target: serotonin transporter (Homo sapiens, UniProt P31645); assay: NIMH PDSP radioligand binding, serotonin transporter; details: read-out: Radioligand binding in 10 μM compound (% control)
Method: as §1, §2, §3

[15] = molecular target: norepinephrine transporter (Homo sapiens, UniProt P23975); assay: NIMH PDSP radioligand binding, norepinephrine transporter; details: read-out: Radioligand binding in 10 μM compound (% control)
Method: as §1, §2, §3

[16] = molecular target: μ-opioid receptor (Homo sapiens, UniProt P35372); assay: NIMH PDSP radioligand binding, μ-opioid receptor; details: read-out: Radioligand binding in 10 μM compound (% control)
Method: as §1, §2, §3

[17] = molecular target: δ-opioid receptor (Homo sapiens, UniProt P41143); assay: NIMH PDSP radioligand binding, δ-opioid receptor; details: read-out: Radioligand binding in 10 μM compound (% control)
Method: as §1, §2, §3

[18] = molecular target: κ-opioid receptor (Homo sapiens, UniProt P41145); assay: NIMH PDSP radioligand binding, κ-opioid receptor
Method: as §1, §2, §3

[19] = system: GABAA; assay: NIMH PDSP radioligand binding, GABAA
Method: as §1, §2, §3

[20] = molecular target: H1 (Homo sapiens, UniProt P35367); assay: NIMH PDSP radioligand binding, H1; details: read-out: Radioligand binding in 10 μM compound (% control)
Method: as §1, §2, §3

[21] = molecular target: H3 (Homo sapiens, UniProt Q9Y5N1); assay: NIMH PDSP radioligand binding, H3; details: read-out: Radioligand binding in 10 μM compound (% control)
Method: as §1, §2, §3

[22] = molecular target: H4 (Homo sapiens, UniProt Q9H3N8); assay: NIMH PDSP radioligand binding, H4; details: read-out: Radioligand binding in 10 μM compound (% control)
Method: as §1, §2, §3

[23] = molecular target: α2A (Homo sapiens, UniProt P08913); assay: NIMH PDSP radioligand binding, α2A; details: read-out: Radioligand binding in 10 μM compound (% control)
Method: as §1, §2, §3

[24] = molecular target: α2B (Homo sapiens, UniProt P18089); assay: NIMH PDSP radioligand binding, α2B; details: read-out: Radioligand binding in 10 μM compound (% control)
Method: as §1, §2, §3

[25] = molecular target: α2C (Homo sapiens, UniProt P18825); assay: NIMH PDSP radioligand binding, α2C; details: read-out: Radioligand binding in 10 μM compound (% control)
Method: as §1, §2, §3

[26] = molecular target: β3 (Homo sapiens, UniProt P13945); assay: NIMH PDSP radioligand binding, β3; details: read-out: Radioligand binding in 10 μM compound (% control)
Method: as §1, §2, §3

[27] = molecular target: M1 (Homo sapiens, UniProt P11229); assay: NIMH PDSP radioligand binding, M1; details: read-out: Radioligand binding in 10 μM compound (% control)
Method: as §1, §2, §3

[28] = molecular target: M3 (Homo sapiens, UniProt P20309); assay: NIMH PDSP radioligand binding, M3; details: read-out: Radioligand binding in 10 μM compound (% control)
Method: as §1, §2, §3

[29] = molecular target: M4 (Homo sapiens, UniProt P08173); assay: NIMH PDSP radioligand binding, M4; details: read-out: Radioligand binding in 10 μM compound (% control)
Method: as §1, §2, §3

[30] = system: benzodiazapine rat brain site; assay: NIMH PDSP radioligand binding, benzodiazapine rat brain site
Method: as §1, §2, §3

[31] = molecular target: translocator protein (peripheral benzodiazepine site) (Homo sapiens, UniProt P30536); assay: NIMH PDSP radioligand binding, translocator protein; details: read-out: Radioligand binding in 10 μM compound (% control)
Method: as §1, §2, §3

[32] = molecular target: hERG (Homo sapiens, UniProt Q12809); assay: NIMH PDSP hERG binding
Method: as §1, §2, §3

[33] = molecular target: σ1 (Homo sapiens, UniProt Q99720); assay: NIMH PDSP radioligand binding, σ1; details: read-out: Radioligand binding in 10 μM compound (% control)
Method: as §1, §2, §3

[34] = molecular target: σ2 (Homo sapiens, UniProt Q5BJF2); assay: NIMH PDSP radioligand binding, σ2
Method: as §1, §2, §3

[35] = system: CNS receptors; assay: Off-target profile, NIMH PDSP CNS receptors (panel summary); type: binding; details: 10 μM
Method: as §1, §2, §3

[36] = 10 μM, read-out: Radioligand binding in 10 μM compound (% control)
[37] = read-out: pKi values from non-linear regression of radioligand competition binding isotherms (converted)

Chain of σ2 (Q5BJF2 whole entry): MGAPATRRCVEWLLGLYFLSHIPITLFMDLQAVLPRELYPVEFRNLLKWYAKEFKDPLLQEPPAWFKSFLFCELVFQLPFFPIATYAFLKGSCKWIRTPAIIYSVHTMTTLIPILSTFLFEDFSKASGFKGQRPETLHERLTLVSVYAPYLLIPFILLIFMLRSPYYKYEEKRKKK
Chain of κ-opioid receptor (P41145 whole entry): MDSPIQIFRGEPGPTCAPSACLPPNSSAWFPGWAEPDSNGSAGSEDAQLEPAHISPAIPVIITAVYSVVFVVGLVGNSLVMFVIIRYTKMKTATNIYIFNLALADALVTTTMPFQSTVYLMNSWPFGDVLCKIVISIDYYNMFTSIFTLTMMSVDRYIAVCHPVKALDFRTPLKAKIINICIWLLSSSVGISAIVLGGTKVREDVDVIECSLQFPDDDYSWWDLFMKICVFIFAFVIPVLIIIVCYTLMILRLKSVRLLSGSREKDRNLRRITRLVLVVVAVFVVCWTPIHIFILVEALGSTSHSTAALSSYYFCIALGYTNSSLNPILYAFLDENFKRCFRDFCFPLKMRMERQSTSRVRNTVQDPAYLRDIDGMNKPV
Chain of translocator protein (peripheral benzodiazepine site) (P30536 whole entry, species assumed): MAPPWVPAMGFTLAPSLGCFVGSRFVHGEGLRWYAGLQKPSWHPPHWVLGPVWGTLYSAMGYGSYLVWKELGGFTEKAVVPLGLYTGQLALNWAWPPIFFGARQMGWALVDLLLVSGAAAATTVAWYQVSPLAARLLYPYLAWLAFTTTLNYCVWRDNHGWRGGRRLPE
T6 sequence (P28566 whole entry, species assumed): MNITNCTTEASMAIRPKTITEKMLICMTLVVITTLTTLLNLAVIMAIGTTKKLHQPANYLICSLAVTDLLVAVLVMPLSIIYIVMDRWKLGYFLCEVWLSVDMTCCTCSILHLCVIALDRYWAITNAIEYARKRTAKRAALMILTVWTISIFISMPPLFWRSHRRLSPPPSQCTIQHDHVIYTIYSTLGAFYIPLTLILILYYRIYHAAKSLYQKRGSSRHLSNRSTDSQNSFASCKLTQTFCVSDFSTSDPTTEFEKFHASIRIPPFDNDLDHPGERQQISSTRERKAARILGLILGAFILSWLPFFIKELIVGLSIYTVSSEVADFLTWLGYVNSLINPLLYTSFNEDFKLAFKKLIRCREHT
Chain of α2C (P18825 whole entry): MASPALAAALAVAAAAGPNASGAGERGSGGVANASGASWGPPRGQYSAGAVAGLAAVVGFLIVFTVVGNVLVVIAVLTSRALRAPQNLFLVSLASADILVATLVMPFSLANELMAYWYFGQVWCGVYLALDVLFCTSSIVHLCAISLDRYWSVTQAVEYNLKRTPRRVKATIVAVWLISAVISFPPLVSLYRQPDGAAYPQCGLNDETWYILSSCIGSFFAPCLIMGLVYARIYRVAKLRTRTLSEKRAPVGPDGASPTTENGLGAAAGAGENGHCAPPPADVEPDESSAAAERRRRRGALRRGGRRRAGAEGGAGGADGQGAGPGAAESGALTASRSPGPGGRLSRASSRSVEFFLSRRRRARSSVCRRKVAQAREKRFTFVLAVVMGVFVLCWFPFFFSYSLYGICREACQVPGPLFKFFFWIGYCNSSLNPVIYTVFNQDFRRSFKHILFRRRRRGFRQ
Chain of hERG (Q12809 whole entry): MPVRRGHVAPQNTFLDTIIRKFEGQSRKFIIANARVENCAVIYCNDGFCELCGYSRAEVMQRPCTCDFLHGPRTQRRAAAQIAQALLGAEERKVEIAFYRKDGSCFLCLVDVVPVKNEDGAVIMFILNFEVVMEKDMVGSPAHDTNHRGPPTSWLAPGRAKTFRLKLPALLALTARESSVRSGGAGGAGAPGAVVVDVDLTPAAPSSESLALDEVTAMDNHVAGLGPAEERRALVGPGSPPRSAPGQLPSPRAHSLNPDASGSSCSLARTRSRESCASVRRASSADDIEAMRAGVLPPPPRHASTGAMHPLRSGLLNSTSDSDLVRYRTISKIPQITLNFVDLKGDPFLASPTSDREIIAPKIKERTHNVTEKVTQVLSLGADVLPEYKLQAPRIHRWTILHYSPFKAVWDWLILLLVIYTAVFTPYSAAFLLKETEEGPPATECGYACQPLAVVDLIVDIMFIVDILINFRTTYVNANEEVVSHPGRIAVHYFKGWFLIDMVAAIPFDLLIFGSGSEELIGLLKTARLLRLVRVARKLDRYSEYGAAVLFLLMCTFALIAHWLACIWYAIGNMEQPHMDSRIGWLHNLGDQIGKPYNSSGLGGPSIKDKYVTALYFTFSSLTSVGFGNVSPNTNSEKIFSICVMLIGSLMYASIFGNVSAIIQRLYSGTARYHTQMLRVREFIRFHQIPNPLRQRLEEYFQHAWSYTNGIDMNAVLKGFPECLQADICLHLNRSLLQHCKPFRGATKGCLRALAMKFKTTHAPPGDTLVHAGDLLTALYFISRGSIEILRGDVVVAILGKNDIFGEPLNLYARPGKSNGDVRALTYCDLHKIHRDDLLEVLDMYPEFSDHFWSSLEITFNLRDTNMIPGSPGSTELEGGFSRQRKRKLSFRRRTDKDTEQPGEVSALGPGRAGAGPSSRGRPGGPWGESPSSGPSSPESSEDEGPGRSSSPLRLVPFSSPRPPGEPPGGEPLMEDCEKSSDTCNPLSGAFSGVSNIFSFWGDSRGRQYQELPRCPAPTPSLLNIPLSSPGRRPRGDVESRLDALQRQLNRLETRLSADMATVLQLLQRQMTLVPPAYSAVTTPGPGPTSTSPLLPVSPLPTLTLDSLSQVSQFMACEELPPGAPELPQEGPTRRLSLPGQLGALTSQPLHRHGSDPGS
Chain of σ1 (Q99720 whole entry): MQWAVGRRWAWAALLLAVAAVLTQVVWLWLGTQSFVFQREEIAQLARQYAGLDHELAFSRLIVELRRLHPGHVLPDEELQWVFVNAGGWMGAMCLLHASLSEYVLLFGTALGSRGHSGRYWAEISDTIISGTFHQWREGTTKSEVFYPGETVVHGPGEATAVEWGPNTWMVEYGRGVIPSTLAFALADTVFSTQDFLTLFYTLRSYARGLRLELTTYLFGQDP
T4 sequence (P28222 whole entry, species assumed): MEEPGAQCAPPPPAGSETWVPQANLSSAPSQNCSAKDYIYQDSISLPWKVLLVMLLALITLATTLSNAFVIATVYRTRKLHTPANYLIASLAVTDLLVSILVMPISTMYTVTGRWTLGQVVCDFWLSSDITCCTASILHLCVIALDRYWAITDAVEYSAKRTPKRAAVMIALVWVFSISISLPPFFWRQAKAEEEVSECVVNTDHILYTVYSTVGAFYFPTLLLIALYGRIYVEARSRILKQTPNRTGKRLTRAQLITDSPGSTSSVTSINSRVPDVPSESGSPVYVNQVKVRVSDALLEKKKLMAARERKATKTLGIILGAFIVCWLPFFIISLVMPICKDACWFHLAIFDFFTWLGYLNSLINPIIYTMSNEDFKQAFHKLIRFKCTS
Chain of H1 (P35367 whole entry): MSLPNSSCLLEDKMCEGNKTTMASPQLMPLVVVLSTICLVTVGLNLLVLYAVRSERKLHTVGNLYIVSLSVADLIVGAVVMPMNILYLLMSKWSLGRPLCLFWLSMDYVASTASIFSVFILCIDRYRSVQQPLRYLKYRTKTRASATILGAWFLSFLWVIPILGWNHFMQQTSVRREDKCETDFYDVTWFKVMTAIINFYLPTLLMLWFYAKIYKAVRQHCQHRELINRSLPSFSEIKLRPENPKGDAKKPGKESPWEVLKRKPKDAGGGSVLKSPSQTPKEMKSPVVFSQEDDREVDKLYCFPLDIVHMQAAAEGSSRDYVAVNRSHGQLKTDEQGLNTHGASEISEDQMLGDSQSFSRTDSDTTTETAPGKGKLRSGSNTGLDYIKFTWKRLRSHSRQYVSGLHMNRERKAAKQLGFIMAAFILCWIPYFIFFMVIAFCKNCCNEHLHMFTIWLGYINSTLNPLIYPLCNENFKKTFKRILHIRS
Chain of α2B (P18089 whole entry): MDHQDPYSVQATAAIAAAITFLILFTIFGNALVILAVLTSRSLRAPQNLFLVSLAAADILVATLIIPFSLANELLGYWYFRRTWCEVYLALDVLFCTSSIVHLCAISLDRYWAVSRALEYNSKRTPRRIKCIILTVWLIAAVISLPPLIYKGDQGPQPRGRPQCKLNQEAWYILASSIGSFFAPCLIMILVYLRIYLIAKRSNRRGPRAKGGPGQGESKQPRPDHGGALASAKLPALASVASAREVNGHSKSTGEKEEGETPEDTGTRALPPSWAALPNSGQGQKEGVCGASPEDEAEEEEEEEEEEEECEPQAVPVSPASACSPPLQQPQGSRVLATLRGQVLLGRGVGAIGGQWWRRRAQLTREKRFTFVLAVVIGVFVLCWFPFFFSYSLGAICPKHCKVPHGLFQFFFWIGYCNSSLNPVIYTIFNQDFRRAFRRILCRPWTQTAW
Chain of serotonin transporter (P31645 whole entry): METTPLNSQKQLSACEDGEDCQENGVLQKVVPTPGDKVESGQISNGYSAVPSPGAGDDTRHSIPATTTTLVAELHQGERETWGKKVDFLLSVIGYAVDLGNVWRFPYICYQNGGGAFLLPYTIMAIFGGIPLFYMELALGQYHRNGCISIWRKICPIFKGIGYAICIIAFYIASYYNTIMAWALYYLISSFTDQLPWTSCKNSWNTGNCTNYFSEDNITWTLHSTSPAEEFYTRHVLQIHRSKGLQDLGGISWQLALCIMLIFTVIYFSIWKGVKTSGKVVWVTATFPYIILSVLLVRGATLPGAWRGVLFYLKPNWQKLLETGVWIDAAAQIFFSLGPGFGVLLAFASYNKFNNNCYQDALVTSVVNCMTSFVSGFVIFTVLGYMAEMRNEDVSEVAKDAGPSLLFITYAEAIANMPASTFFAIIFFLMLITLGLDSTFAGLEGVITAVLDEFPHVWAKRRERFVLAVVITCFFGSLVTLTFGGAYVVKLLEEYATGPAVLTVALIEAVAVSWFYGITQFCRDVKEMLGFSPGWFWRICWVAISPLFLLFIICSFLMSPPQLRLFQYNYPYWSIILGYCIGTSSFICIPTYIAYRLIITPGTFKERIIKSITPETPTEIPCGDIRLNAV

SMILES: COc1ccc(OCC2c3cccn3CCN2C(=O)c2cccc(Cl)c2)cc1 (stereo not shown) [1180-420, (3-Chlorophenyl)(1-((4-methoxyphenoxy)methyl)-3,4-dihydropyrrolo[1,2-a]pyrazin-2(1H)-yl)methanone]
- % control response [1]: 101.6 ± 1.3 % control response
- % control response [2]: 93.4 ± 15.5 % control response
- % control response [3]: 81.4 ± 8.5 % control response
- remaining activity at 10 µM [4]: 110%
- remaining activity at 10 µM [5]: 95%
- remaining activity at 10 µM [6]: 112%
- remaining activity at 10 µM [7]: 78%
- remaining activity at 10 µM [8]: 69%
- remaining activity at 10 µM [9]: 95%
- remaining activity at 10 µM [10]: 75%
- remaining activity at 10 µM [11]: 59%
- remaining activity at 10 µM [12]: 87%
- remaining activity at 10 µM [13]: 90%
- remaining activity at 10 µM [14]: 86%
- remaining activity at 10 µM [15]: 75%
- remaining activity at 10 µM [16]: 104%
- remaining activity at 10 µM [17]: 89%
- remaining activity at 10 µM [18, 36]: 32%
- Ki [18, 37]: 1580 nM
- Radioligand binding in 10 μM compound (% control) [19]: 110 % control
- remaining activity at 10 µM [20]: 74%
- remaining activity at 10 µM [21]: 99%
- remaining activity at 10 µM [22]: 90%
- remaining activity at 10 µM [23]: 79%
- remaining activity at 10 µM [24]: 93%
- remaining activity at 10 µM [25]: 83%
- remaining activity at 10 µM [26]: 74%
- remaining activity at 10 µM [27]: 90%
- remaining activity at 10 µM [28]: 69%
- remaining activity at 10 µM [29]: 84%
- Radioligand binding in 10 μM compound (% control) [30]: 71 % control
- remaining activity at 10 µM [31]: 67%
- Radioligand binding in 10 μM compound (% control) [32]: 73 % control
- remaining activity at 10 µM [33]: 76%
- remaining activity at 10 µM [34, 36]: 48%
- Ki [34, 37]: 1580 nM
- receptors with >50% inhibition / receptors tested [35]: 4/44
